Experiments:
[1] = test system: rabbit abdominal incision bleeding model; conditions: in combination with clopidogrel; cited from earlier work
[2] = test system: FXa, FIXa, FXIIa, FVIIa, thrombin, tPA, urokinase and plasmin; conditions: cited from earlier work
[3] = plasma pharmacokinetics in first‐in‐human study; format: in vivo; conditions: for Tmax: human, plasma
[4] = test system: activated partial thromboplastin time (aPTT); test: activated partial thromboplastin time; format: in vivo, human
[5] = test system: monkey arteriovenous shunt model; conditions: preclinical; cited from earlier work
[6] = target: factor XI coagulation activity (FXI:C) (Homo sapiens, UniProt P03951); test: factor XI coagulation activity; format: in vivo
[7] = test system: monkey nail‐cut bleeding model; conditions: preclinical; cited from earlier work
[8] = Part A, single dose 1 mg, fasted
[9] = Part A, single dose 5 mg, fasted
[10] = Part A, single dose 20 mg, fasted
[11] = Part A, single dose 80 mg, fasted
[12] = Part A, single dose 150 mg, fasted
[13] = Part A, single dose 300 mg, fasted
[14] = Part A, single dose of 20–300 mg
[15] = Part B, 80 mg QD for 14 days, fed
[16] = Part B, 150 mg QD for 14 days, fed
[17] = Part B, first dose of 80, 150 and 250 mg

Chain of factor XI coagulation activity (FXI:C) (P03951 388-625 limits assumed): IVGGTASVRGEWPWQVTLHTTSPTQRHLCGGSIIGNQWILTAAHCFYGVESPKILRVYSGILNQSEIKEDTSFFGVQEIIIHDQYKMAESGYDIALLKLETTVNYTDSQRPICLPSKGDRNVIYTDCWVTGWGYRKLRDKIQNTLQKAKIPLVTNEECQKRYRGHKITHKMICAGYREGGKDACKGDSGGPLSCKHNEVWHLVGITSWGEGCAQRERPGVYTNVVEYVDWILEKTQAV
Chain of factor XI coagulation activity (FXI:C) (P03951 19-387 partner limits assumed): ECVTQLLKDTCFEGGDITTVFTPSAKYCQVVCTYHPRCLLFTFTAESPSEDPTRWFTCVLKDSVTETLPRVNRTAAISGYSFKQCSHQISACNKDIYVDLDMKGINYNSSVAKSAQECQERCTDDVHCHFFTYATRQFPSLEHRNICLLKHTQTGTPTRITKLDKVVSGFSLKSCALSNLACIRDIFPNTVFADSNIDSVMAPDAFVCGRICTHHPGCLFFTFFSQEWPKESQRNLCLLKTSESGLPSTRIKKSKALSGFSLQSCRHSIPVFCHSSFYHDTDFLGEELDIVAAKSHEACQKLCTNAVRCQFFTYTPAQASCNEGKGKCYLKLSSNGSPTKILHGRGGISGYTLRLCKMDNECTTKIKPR

For Nc1ccc(-c2nc([C@H]3CCc4cc(-c5cc(Cl)ccc5-n5cnnn5)cc(=O)n43)c(F)[nH]2)c(F)n1 [ONO‐7684], the “bleeding risk compared with rivaroxaban” value [1] is given as “lower bleeding risk than rivaroxaban”, the “selectivity for FXIa relative to other coagulation/fibrinolysis factors” value [2] is given as “highly selective for FXIa” and the “time of peak mean plasma concentration post‐dose” value ([3]; Part A, 80 mg fed cohort) is given as “approximately 8 hours”. For the same compound, the “fold increase of AUCinf with a 300‐fold increase in dose” value ([3]; Part A, 1–300 mg) was about 416 fold, the “fold increase of Cmax with a 300‐fold increase in dose” value ([3]; Part A, 1–300 mg) was “about 308 fold” and the “time of peak mean plasma concentration post‐dose” value ([3]; Part A, each cohort except 80 mg fed) was “approximately 4 hours”. The “AUC24 accumulation GM ratio Day 14 versus Day 1” value ([3]; Part B, 80 mg QD) was 2.33, the “Cmax accumulation GM ratio Day 14 versus Day 1” value ([3]; Part B, 80 mg QD) was 1.88 and the “AUC24 accumulation GM ratio Day 14 versus Day 1” value ([3]; Part B, 150 mg QD) was 2.22. The “Cmax accumulation GM ratio Day 14 versus Day 1” value ([3]; Part B, 150 mg QD) was 1.90, the “AUC24 accumulation GM ratio Day 14 versus Day 1” value ([3]; Part B, 250 mg QD) was 2.41 and the “Cmax accumulation GM ratio Day 14 versus Day 1” value ([3]; Part B, 250 mg QD) was 2.09. The “fold increase of AUC24 with a 3.1‐fold increase in dose” value ([3]; Part B, 80–250 mg QD, Day 14) was “approximately 3.6 fold”, the “fold increase of Cmax with a 3.1‐fold increase in dose” value ([3]; Part B, 80–250 mg QD, Day 14) was “approximately 3.6 fold” and the “time for plasma concentrations to decrease to baseline levels” value ([3]; Part B, after final dose on Day 14) was at most 72 h. The “time to reach steady state” value ([3]; Part B, daily dosing) was at most 6 days, the Tmax ([3]; oral, median range across cohorts, Part A, fasted cohorts) was 2.5 to 4 h and the Tmax ([3]; oral, median range across cohorts, Part B, Day 1) was 2.5 to 4 h. The Tmax ([3]; oral, median range across cohorts, Part B, Day 14) was 4 to 4.01 h, the Tmax ([3]; po, 1 mg, median (range), Part A, single dose 1 mg, fasted) was 2.5 h and the Tmax ([3]; po, 5 mg, median (range), Part A, single dose 5 mg, fasted) was 3.5 h. It also gave a Tmax ([3]; po, 80 mg, median (range), Part A, single dose 80 mg, fed) of 7.05 h, a Tmax ([3]; po, 80 mg, median (range), Part B, 80 mg QD fed, Day 1) of 2.5 h and a Tmax ([3]; po, 80 mg, median (range), Part B, 80 mg QD fed, Day 14) of 4.01 h. It also gave a Tmax ([3]; po, 150 mg, median (range), Part B, 150 mg QD fed, Day 1) of 4 h, a Tmax ([3]; po, 150 mg, median (range), Part B, 150 mg QD fed, Day 14) of 4.01 h and a Tmax ([3]; po, 250 mg, median (range), Part B, 250 mg QD fed, Day 1) of 4 h. For the same compound, the Tmax ([3]; po, 250 mg, median (range), Part B, 250 mg QD fed, Day 14) was 4 h, the “time of maximal prolongation of aPTT post‐dose” value ([4]; Part A, 80 mg fed group) was “approximately 8 hours” and the “aPTT Day 1 24 hours RTB, mean ± SD” value [4, 8] was 1.00 ± 0.034. The “aPTT Day 1 24 hours RTB, mean ± SD” value [4, 9] was 1.10 ± 0.061, the “aPTT Maximum on treatment RTB, mean ± SD” value [4, 9] was 1.18 ± 0.054 and the “aPTT Day 1 24 hours RTB, mean ± SD” value [4, 10] was 1.15 ± 0.119. The “aPTT Maximum on treatment RTB, mean ± SD” value [4, 10] was 1.40 ± 0.016, the “aPTT Day 1 24 hours RTB, mean ± SD” value [4, 11] was 1.54 ± 0.111 and the “aPTT Maximum on treatment RTB, mean ± SD” value [4, 11] was 1.83 ± 0.172. The “aPTT Day 1 24 hours RTB, mean ± SD” value ([4]; Part A, single dose 80 mg, fed) was 1.61 ± 0.128, the “aPTT Maximum on treatment RTB, mean ± SD” value ([4]; Part A, single dose 80 mg, fed) was 1.74 ± 0.163 and the “aPTT Day 1 24 hours RTB, mean ± SD” value [4, 12] was 1.63 ± 0.031. For the same compound, the “aPTT Maximum on treatment RTB, mean ± SD” value [4, 12] was 1.97 ± 0.078, the “aPTT Day 1 24 hours RTB, mean ± SD” value [4, 13] was 1.99 ± 0.139 and the “time of maximal prolongation of aPTT post‐dose” value [4, 14] was “approximately 4 hours”. The “aPTT Maximum on treatment RTB, mean ± SD” value [4, 15] was 2.07 ± 0.152, the “aPTT Day 1 24 hours RTB, mean ± SD” value ([4]; Part B, 80 mg QD, fed) was 1.53 ± 0.119 and the “aPTT Day 14 24 hours RTB, mean ± SD” value ([4]; Part B, 80 mg QD, fed) was 1.87 ± 0.163. The “aPTT Maximum on treatment RTB, mean ± SD” value [4, 16] was 2.35 ± 0.275, the “aPTT Day 1 24 hours RTB, mean ± SD” value ([4]; Part B, 150 mg QD, fed) was 1.78 ± 0.174 and the “aPTT Day 14 24 hours RTB, mean ± SD” value ([4]; Part B, 150 mg QD, fed) was 2.06 ± 0.261. For the same compound, the “aPTT Day 1 24 hours RTB, mean ± SD” value ([4]; Part B, 250 mg QD, fed) was 2.06 ± 0.091, the “aPTT Day 14 24 hours RTB, mean ± SD” value ([4]; Part B, 250 mg QD, fed) was 2.53 ± 0.146 and the “time of maximal aPTT prolongation post‐dose” value [4, 17] was “approximately 4 hours”. For the same compound, the thrombus formation [5] was “significantly inhibited thrombus formation”, the “time of maximal inhibition of FXI:C post‐dose” value ([6]; Part A, 80 mg fed group) was “approximately 8 hours” and the “time of return of FXI:C and aPTT to near baseline levels post‐dose” value ([6]; Part A, 80, 150 and 300 mg) was at most 72 h. For the same compound, the “time the effects on FXI:C and aPTT were maintained” value ([6]; Part A, 80, 150 and 300 mg) was “up to 24 hours”, the “FXI:C Day 1 24 hours RTB, mean ± SD” value [6, 8] was 0.95 ± 0.141 and the “FXI:C Day 1 24 hours inhibition, mean ± SD” value [6, 8] was 5 ± 14.1%. The “FXI:C Maximum on treatment inhibition, mean ± SD” value [6, 8] was 13 ± 7.7%, the “FXI:C Day 1 24 hours RTB, mean ± SD” value [6, 9] was 0.95 ± 0.049 and the “FXI:C Day 1 24 hours inhibition, mean ± SD” value [6, 9] was 5 ± 4.9%. For the same compound, the “FXI:C Maximum on treatment inhibition, mean ± SD” value [6, 9] was 10 ± 2.6%, the “FXI:C Minimum on treatment RTB, mean ± SD” value (from here on “FXI:C Minimum … mean ± SD”) [6, 9] was 0.90 ± 0.026 and the “FXI:C Day 1 24 hours RTB, mean ± SD” value [6, 10] was 0.95 ± 0.185. The “FXI:C Day 1 24 hours inhibition, mean ± SD” value [6, 10] was 5 ± 18.5%, the “FXI:C Maximum on treatment inhibition, mean ± SD” value [6, 10] was 29 ± 4.8% and the “FXI:C Minimum … mean ± SD” value [6, 10] was 0.71 ± 0.048. The “FXI:C Day 1 24 hours RTB, mean ± SD” value [6, 11] was 0.61 ± 0.051, the “FXI:C Day 1 24 hours inhibition, mean ± SD” value [6, 11] was 39 ± 5.1% and the “FXI:C Maximum on treatment inhibition, mean ± SD” value [6, 11] was 69 ± 7.0%. The “FXI:C Minimum … mean ± SD” value [6, 11] was 0.31 ± 0.070, the “FXI:C Day 1 24 hours RTB, mean ± SD” value ([6]; Part A, single dose 80 mg, fed) was 0.61 ± 0.066 and the “FXI:C Day 1 24 hours inhibition, mean ± SD” value ([6]; Part A, single dose 80 mg, fed) was 39 ± 6.6%. The “FXI:C Maximum on treatment inhibition, mean ± SD” value ([6]; Part A, single dose 80 mg, fed) was 54 ± 8.9%, the “FXI:C Minimum … mean ± SD” value ([6]; Part A, single dose 80 mg, fed) was 0.46 ± 0.089 and the “FXI:C Day 1 24 hours RTB, mean ± SD” value [6, 12] was 0.48 ± 0.057. For the same compound, the “FXI:C Maximum on treatment inhibition, mean ± SD” value [6, 12] was 78 ± 3.4%, the “FXI:C Minimum … mean ± SD” value [6, 12] was 0.22 ± 0.034 and the “FXI:C Day 1 24 hours RTB, mean ± SD” value [6, 13] was 0.26 ± 0.089. For the same compound, the “FXI:C Day 1 24 hours inhibition, mean ± SD” value [6, 13] was 74 ± 8.9%, the “time of maximal inhibition of FXI:C post‐dose” value [6, 14] was “approximately 4 hours” and the “FXI:C Minimum … mean ± SD” value [6, 15] was 0.25 ± 0.077. For the same compound, the “FXI:C Day 1 24 hours RTB, mean ± SD” value ([6]; Part B, 80 mg QD, fed) was 0.67 ± 0.035, the “FXI:C Day 14 24 hours RTB, mean ± SD” value ([6]; Part B, 80 mg QD, fed) was 0.39 ± 0.111 and the “FXI:C Minimum … mean ± SD” value [6, 16] was 0.15 ± 0.052. The “FXI:C Day 1 24 hours RTB, mean ± SD” value ([6]; Part B, 150 mg QD, fed) was 0.48 ± 0.112, the “FXI:C Day 14 24 hours RTB, mean ± SD” value ([6]; Part B, 150 mg QD, fed) was 0.27 ± 0.096 and the “FXI:C Day 1 24 hours RTB, mean ± SD” value ([6]; Part B, 250 mg QD, fed) was 0.33 ± 0.065. For the same compound, the “FXI:C Day 14 24 hours RTB, mean ± SD” value ([6]; Part B, 250 mg QD, fed) was 0.14 ± 0.053, the “time of maximal inhibition of FXI:C post‐dose” value [6, 17] was “approximately 4 hours” and the bleeding time [7] was “did not prolong bleeding time”.
